Measurements from ChEMBL document CHEMBL3991601, “The target landscape of clinical kinase drugs” (Science, 2017).
Active and inactive are the calls of the source.

How the values were obtained:
[1] = molecular target: T1, Exosome RNA helicase MTR4 (Homo sapiens, UniProt P42285)
T1 sequence (P42285 whole entry): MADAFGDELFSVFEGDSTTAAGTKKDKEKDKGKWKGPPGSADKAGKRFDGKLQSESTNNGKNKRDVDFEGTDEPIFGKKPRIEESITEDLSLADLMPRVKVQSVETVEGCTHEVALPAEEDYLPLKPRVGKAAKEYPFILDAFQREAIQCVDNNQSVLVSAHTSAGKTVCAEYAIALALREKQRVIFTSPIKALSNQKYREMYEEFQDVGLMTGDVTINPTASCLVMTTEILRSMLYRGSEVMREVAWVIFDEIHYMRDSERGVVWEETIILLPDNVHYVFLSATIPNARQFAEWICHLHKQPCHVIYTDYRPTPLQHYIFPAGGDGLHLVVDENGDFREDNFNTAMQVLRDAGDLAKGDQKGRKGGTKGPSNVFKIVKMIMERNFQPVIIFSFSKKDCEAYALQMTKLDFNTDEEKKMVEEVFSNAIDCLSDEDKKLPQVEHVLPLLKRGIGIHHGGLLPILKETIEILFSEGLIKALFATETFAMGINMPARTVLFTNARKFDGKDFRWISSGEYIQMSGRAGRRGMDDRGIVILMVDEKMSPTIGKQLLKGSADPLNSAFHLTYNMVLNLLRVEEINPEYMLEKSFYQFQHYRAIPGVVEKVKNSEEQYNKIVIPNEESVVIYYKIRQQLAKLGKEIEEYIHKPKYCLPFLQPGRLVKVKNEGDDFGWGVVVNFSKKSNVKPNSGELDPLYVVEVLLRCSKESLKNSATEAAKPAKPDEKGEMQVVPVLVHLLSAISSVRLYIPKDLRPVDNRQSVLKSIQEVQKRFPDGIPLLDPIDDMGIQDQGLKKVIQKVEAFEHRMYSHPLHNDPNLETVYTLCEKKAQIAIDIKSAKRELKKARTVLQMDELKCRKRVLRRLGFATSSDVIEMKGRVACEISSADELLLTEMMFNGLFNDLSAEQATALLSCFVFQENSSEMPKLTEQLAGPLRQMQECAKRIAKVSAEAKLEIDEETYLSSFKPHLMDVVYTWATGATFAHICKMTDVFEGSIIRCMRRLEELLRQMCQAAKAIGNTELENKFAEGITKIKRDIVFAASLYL

[2] = molecular target: Serine/threonine-protein kinase MRCK beta (Homo sapiens, UniProt Q9Y5S2)
Serine/threonine-protein kinase MRCK beta, sequence (Q9Y5S2 whole entry): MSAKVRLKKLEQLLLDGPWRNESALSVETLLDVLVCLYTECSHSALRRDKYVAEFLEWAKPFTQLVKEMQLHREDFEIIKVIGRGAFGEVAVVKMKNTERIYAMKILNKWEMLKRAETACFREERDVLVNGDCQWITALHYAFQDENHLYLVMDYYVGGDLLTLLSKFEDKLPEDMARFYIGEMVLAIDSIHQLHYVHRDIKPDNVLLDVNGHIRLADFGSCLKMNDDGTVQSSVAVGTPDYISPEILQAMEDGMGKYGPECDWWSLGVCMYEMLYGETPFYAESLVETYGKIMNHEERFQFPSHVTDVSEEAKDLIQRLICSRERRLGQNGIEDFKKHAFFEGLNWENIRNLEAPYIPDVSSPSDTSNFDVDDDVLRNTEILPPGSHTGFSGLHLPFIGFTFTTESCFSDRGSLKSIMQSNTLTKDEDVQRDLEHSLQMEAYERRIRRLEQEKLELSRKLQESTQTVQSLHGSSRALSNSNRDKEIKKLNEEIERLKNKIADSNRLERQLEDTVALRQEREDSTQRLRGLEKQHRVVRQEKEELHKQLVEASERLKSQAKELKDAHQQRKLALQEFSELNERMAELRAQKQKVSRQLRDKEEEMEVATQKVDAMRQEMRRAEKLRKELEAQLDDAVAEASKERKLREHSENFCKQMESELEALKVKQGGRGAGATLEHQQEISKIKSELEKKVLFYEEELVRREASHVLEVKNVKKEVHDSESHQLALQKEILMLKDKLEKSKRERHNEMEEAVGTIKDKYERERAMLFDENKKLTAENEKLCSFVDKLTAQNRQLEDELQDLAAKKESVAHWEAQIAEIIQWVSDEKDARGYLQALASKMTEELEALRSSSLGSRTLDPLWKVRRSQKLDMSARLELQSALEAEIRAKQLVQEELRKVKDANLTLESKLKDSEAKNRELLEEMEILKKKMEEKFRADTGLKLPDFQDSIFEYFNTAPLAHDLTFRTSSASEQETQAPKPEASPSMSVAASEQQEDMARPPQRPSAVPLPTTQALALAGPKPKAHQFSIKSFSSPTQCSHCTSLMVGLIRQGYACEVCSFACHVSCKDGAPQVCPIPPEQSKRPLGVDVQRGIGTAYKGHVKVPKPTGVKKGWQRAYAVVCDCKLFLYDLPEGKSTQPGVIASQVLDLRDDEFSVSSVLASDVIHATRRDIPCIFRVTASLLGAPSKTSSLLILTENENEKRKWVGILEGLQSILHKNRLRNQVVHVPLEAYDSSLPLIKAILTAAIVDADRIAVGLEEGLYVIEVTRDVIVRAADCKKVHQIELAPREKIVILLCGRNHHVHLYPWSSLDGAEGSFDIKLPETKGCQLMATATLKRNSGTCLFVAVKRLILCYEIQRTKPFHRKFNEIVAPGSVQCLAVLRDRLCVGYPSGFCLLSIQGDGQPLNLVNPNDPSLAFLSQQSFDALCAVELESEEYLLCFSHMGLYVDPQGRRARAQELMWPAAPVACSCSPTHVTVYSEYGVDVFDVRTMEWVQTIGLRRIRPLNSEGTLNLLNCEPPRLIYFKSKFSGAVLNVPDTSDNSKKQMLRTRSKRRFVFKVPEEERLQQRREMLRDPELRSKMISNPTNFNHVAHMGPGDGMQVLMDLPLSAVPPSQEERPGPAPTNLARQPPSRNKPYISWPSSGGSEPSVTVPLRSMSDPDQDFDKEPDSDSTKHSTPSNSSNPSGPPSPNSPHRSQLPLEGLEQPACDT

[3] = molecular target: Tyrosine-protein kinase Yes (Homo sapiens, UniProt P07947)
Tyrosine-protein kinase Yes, sequence (P07947 whole entry): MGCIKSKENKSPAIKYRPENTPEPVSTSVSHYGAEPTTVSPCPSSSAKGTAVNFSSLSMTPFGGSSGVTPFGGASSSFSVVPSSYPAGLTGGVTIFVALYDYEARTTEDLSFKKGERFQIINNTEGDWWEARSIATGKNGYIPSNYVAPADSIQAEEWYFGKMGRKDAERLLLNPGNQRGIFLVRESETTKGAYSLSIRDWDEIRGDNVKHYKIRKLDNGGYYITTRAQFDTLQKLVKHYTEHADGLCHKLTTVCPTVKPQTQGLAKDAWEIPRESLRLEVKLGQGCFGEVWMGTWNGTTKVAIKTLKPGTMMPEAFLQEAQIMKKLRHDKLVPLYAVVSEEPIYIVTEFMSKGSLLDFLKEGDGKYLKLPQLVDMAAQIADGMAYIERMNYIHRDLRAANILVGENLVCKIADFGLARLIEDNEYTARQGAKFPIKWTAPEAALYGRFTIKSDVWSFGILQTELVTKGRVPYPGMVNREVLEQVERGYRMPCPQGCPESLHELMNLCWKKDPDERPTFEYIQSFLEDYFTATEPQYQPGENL

[4] = molecular target: T2, Tyrosine--tRNA ligase, cytoplasmic (Homo sapiens, UniProt P54577)
T2 sequence (P54577 whole entry): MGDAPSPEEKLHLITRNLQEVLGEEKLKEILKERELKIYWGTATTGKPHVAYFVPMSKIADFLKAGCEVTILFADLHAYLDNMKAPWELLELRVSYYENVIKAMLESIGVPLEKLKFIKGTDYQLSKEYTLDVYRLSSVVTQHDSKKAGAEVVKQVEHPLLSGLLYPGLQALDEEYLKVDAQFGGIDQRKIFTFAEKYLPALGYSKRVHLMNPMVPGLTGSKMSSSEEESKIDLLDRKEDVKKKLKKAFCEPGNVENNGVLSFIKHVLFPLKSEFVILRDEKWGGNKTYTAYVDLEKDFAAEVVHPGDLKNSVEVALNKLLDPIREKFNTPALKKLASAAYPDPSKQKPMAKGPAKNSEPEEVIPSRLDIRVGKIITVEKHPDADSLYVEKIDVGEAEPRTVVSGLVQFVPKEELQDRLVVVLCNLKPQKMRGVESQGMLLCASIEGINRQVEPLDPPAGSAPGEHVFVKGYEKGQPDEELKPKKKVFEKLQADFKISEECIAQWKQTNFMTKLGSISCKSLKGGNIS

[5] = molecular target: T3, Ras-related protein Rab-27A (Homo sapiens, UniProt P51159)
T3 sequence (P51159 whole entry): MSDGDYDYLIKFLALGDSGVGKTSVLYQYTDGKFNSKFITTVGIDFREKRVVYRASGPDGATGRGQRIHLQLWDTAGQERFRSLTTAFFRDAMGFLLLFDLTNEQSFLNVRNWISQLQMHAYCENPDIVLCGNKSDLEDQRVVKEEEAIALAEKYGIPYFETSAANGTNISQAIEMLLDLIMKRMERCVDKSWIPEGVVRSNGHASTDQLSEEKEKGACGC

[6] = molecular target: T4, Glycogen phosphorylase, brain form (Homo sapiens, UniProt P11216)
T4 sequence (P11216 whole entry): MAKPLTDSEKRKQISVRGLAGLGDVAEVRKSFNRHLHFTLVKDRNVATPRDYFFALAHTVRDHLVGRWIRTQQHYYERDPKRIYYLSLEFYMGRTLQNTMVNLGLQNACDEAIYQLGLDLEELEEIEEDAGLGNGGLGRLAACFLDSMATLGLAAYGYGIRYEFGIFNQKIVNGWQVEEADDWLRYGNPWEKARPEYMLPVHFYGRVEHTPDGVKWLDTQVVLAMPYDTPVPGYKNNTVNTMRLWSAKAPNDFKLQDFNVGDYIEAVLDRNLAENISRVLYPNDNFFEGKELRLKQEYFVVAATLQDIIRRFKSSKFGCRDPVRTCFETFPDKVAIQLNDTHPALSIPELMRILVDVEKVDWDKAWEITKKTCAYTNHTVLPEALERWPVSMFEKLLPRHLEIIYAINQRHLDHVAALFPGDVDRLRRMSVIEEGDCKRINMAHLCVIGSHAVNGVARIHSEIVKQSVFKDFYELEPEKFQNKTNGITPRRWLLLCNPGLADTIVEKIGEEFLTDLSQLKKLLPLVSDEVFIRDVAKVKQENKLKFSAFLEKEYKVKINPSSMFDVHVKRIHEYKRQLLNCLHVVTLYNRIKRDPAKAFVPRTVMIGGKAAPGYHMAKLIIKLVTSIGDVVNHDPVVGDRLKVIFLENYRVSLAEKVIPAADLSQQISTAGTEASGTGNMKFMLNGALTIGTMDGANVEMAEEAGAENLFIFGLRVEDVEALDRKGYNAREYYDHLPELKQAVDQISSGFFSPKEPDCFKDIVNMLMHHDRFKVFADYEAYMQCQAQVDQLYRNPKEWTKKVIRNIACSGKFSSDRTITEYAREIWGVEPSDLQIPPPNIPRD

Aurora kinase B = Aurora kinase B (Homo sapiens, UniProt Q96GD4)
Aurora kinase B, sequence (Q96GD4 whole entry): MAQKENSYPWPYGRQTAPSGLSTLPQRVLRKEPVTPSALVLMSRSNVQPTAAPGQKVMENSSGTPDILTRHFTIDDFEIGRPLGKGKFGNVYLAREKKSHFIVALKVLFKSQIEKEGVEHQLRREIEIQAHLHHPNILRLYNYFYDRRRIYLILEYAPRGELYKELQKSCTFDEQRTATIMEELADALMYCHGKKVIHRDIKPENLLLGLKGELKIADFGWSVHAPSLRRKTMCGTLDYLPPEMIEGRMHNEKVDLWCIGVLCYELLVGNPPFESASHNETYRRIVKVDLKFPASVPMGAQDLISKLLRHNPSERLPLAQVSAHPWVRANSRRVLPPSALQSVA
Also: in the data inactive means no Kd found up to 30 µM.

SMILES	Kd [1]	Kd [2]	Kd [3]	Kd [4]	Kd [5]	Kd [6]	Kd (Aurora kinase B)
Cn1cc(-c2[nH]c3cc(NC(=O)[C@H](N)C4CCCCC4)cc4c3c2C=NNC4=O)cn1	> 30 µM (inactive)	> 30 µM (inactive)	0.623 µM (active)	> 30 µM (inactive)	> 30 µM (inactive)	> 30 µM (inactive)	0.12 µM (active)
C=CC(=O)Nc1cc(Nc2nccc(-c3cn(C)c4ccccc34)n2)c(OC)cc1N(C)CCN(C)C [OSIMERTINIB]	> 30 µM (inactive)	> 30 µM (inactive)	> 30 µM (inactive)	> 30 µM (inactive)	> 30 µM (inactive)	> 30 µM (inactive)	> 30 µM (inactive)
Cc1cc(-c2cc(OC(=O)c3ccccc3)ccc2Cl)cc2nnc(Nc3ccc(OCCN4CCCC4)cc3)nc12 [TG100-801]	> 30 µM (inactive)	> 30 µM (inactive)	4.43 µM (active)	> 30 µM (inactive)	> 30 µM (inactive)	> 30 µM (inactive)	> 30 µM (inactive)
COc1cccc2cc(-c3nc([C@H]4CC[C@H](C(=O)O)CC4)n4ncnc(N)c34)[nH]c12 [OSI-027]	> 30 µM (inactive)	> 30 µM (inactive)	> 30 µM (inactive)	> 30 µM (inactive)	> 30 µM (inactive)	> 30 µM (inactive)	> 30 µM (inactive)
CNC(=O)c1ccc(Nc2ncc(C(F)(F)F)c(NCc3nccnc3N(C)S(C)(=O)=O)n2)cc1 [DEFACTINIB]	> 30 µM (inactive)	> 30 µM (inactive)	> 30 µM (inactive)	> 30 µM (inactive)	> 30 µM (inactive)	> 30 µM (inactive)	1.46 µM (active)
CN1CCN(c2nc(C3=C(c4c[nH]c5ccccc45)C(=O)NC3=O)c3ccccc3n2)CC1 [SOTRASTAURIN]	> 30 µM (inactive)	> 30 µM (inactive)	> 30 µM (inactive)	> 30 µM (inactive)	> 30 µM (inactive)	> 30 µM (inactive)	> 30 µM (inactive)
NC(=O)c1ccc(N(C(N)=O)c2c(F)cccc2F)nc1-c1ccc(F)cc1F [VX-702]	> 30 µM (inactive)	> 30 µM (inactive)	> 30 µM (inactive)	> 30 µM (inactive)	> 30 µM (inactive)	> 30 µM (inactive)	> 30 µM (inactive)
c1cc(OCCN2CCCCC2)cc(-c2n[nH]c3ccc(-c4nc[nH]n4)cc23)c1 [CC-401]	> 30 µM (inactive)	> 30 µM (inactive)	> 30 µM (inactive)	> 30 µM (inactive)	> 30 µM (inactive)	> 30 µM (inactive)	> 30 µM (inactive)
